US20220117945A1, “ISOXAZOLE CARBOXAMIDE COMPOUNDS AND USES THEREOF” (NOVARTIS AG, priority 2017, published 2022)

Tested on: Atoh1 expression in mouse cerebellar neural precursor cells
Assay: Atoh1 induction assay in mouse cerebellar neural precursor cells (NPCs), Atoh1-GFP reporter
Type: cell-based
Conditions: 10 doses 50 μM to 200 nM, 72 hours treatment, DMSO control = 1, more than 5 considered significant, read-out: fold difference (maximum fold difference of GFP average intensity in cell nuclei over the DMSO control)
Experimental: Compounds of the present disclosure were assessed for their ability to increase the Atoh1 expression in mouse cerebellar neural precursor cells. The ability of compounds of the present disclosure to induce new hair cell formation was assessed in ex vivo hair cell induction assay using 6-day-postnatal mouse cochlea explants with hair cell damage.
Atoh1 Induction Assay in Mouse Cerebellar Neural Precursor Cells (NPCs)
Atoh1 induction assay was conducted with in vitro cultured cerebellar neural precursor cells isolated from neonatal transgenic Atoh1-GFP mice. Atoh1 expression is mainly regulated by the enhancer, and the nuclear GFP was driven by the cloned enhancer sequence at 3′ of Atoh1 which had high conservation among mammalians. So Atoh1 induction could be reflected by GFP activation in cerebellar neural precursor cells (Helms et al., Development 2000; 127: 1185-1196; Lumpkin et al., Gene Expression Patterns 2003; 3: 389-395). Postnatal 3 days pups were dissected for cerebellum tissue isolation. The cerebellum tissue was cut into small pieces, and dissociated with 0.05% Trypsin for about 10 minutes at 37° C., and then filtered with a 70 uM cell strainer. The cells were cultured as neuropsheres for the first 2 days in ultra-low attachment dish/well-plate with DMEM/F12+1% N2 &2% B27 with 1% P/S, 20 ng/ml rhFGF2 and 20 ng/ml rhEGF (R&D Systems). Then the spheres were plated to the matrigel (1:30 diluted in DMEM/F12)-coated tissue culture dish for monolayer culture. After 4.5-5.5 days culture in vitro (DIV), cells were dissociated with 0.05% trypsin into single cells, and frozen after cell number calculation.
The cerebellar neural precursor cells (NPCs) were re-thawed from stock and cultured for another 2 days before used for Atoh1 induction assay. On the first day of assay, NPCs were seeded into matrigel-coated 384 well plates (Black view-plate, PE) at 2500 cells/well. After over-night culture, the NPCs were treated with representative compounds of the present disclosure with 1:2 serial dilutions for 10 doses, from 50 μM to 200 nM, with DMSO as negative control. After 72 hours treatment without medium change, the cells were fixed with 4% formalin for staining. Assay plates were stained with GFP antibody (Abcam, #13970, 1:1000) to amplify endogenous GFP signal and then read by Cellomics.

| SMILES | maximal fold induction |
| --- | --- |
| CNC(=O)N1CCN(CCCCCNC(=O)c2cc(-c3cccs3)on2)CC1 [Example 25, N-(5-(4-(Methylcarbamoyl)piperazin-1-yl)pentyl)-5-(thiophen-2-yl)isoxazole-3-carboxamide] | 10.1 |
| O=C1CCN(CCCCCNC(=O)c2cc(-c3cccs3)on2)C1 [Example 26, N-(5-(3-Oxopyrrolidin-1-yl)pentyl)-5-(thiophen-2-yl)isoxazole-3-carboxamide] | 7.1 |
| CN(C)C(=O)C1CN(CCCCCNC(=O)c2cc(-c3ccc(F)cc3)on2)C1 [Example 28] | 28.6 |
| N#CC1CCN(CCCCCNC(=O)c2cc(-c3cccs3)on2)C1 (centres unmarked) [Example 29] | 20.1 |
| CC(=O)N1CCN(CCCCCNC(=O)c2cc(-c3ccc(F)cc3)on2)CC1 [Example 30] | 13.4 |
| O=C(NCCCCCN1CCC(F)(F)CC1)c1cc(-c2cccs2)on1 [Example 31] | 16 |
| O=C(NCCCCCN1CCC(F)C1)c1cc(-c2cccs2)on1 (centres unmarked) [Example 32] | 26.8 |
| O=C(NCCCCCN1CC(CO)C1)c1cc(-c2ccc(F)cc2)on1 [Example 33] | 26.1 |
| O=C(NCCCCCN1CC2(COC2)C1)c1cc(-c2cccs2)on1 [Example 34] | 20.8 |
| N#CC1CN(CCCCCNC(=O)c2cc(-c3cccs3)on2)C1 [Example 35] | 29.7 |
| O=C1CN(CCCCCNC(=O)c2cc(-c3cccs3)on2)CCN1 [Example 37] | 13.5 |
| CN1CCN(CCCCCNC(=O)c2cc(-c3cccs3)on2)CC1=O [Example 38] | 34.3 |
| O=C(NCCCCCN1CCC(O)CC1)c1cc(-c2cccs2)on1 [Example 39] | 20.5 |
| O=C(NCCCCCN1CCN2CCCC2C1)c1cc(-c2cccs2)on1 (centres unmarked) [Example 41] | 21.9 |
| C[C@H]1CN(CCCCCNC(=O)c2cc(-c3cccs3)on2)C[C@H](C)O1 [Example 43] | 21.5 |
| O=C(NCCCCCN1CC(F)C1)c1cc(-c2ccc(F)cc2)on1 [Example 44] | 34.7 |
| CN(C)C(=O)C1CN(CCCCCNC(=O)c2cc(-c3cccs3)on2)C1 [Example 46] | 18 |
| O=C(NCCCCCN1CCCC(F)C1)c1cc(-c2cccs2)on1 (centres unmarked) [Example 50] | 23.4 |
| O=C(NCCCCCN1CCCC(O)C1)c1cc(-c2cccs2)on1 (centres unmarked) [Example 57] | 15.4 |
| O=C(NCCCCCN1CC(F)(F)C1)c1cc(-c2cccs2)on1 [Example 58] | 10 |
| CN1C[C@H]2C[C@@H]1CN2CCCCCNC(=O)c1cc(-c2cccs2)on1 [Example 60] | 18.7 |
| CNC(=O)C1CN(CCCCCNC(=O)c2cc(-c3cccs3)on2)C1 [Example 61, N-(5-(3-(methylcarbamoyl)azetidin-1-yl)pentyl)-5-(thiophen-2-yl)isoxazole-3-carboxamide] | 33.7 |
| O=C(NCCCCCN1CC(C(=O)NC2CC2)C1)c1cc(-c2cccs2)on1 [Example 62] | 26.6 |
| CS(=O)(=O)C1CN(CCCCCNC(=O)c2cc(-c3cccs3)on2)C1 [Example 63] | 19.8 |

| SMILES | maximal fold induction |
| --- | --- |
| N#CC1CN(CCCCCNC(=O)c2cc(-c3ccc(F)cc3)on2)C1 [Example 64] | 36.2 |
| COC1CN(CCCCCNC(=O)c2cc(-c3ccc(F)cc3)on2)C1 [Example 68] | 22.3 |
| O=C(NCCCCCN1CC2(COC2)C1)c1cc(-c2ccc(F)cc2)on1 [Example 69] | 33.5 |
| NS(=O)(=O)C1CN(CCCCCNC(=O)c2cc(-c3ccc(F)cc3)on2)C1 [Example 70] | 14 |
| O=C(NCCCCCN1CC(c2ncc[nH]2)C1)c1cc(-c2ccc(F)cc2)on1 [Example 71] | 26.8 |
| NS(=O)(=O)C1CN(CCCCCNC(=O)c2cc(-c3cccs3)on2)C1 [Example 72, N-(5-(3-sulfamoylazetidin-1-yl)pentyl)-5-(thiophen-2-yl)isoxazole-3-carboxamide] | 15.5 |
| CN1CCN(CCCCCNC(=O)c2cc(-c3ccc(F)s3)on2)CC1 [Example 73, 5-(5-Fluorothiophen-2-yl)-N-(5-(4-methylpiperazin-1-yl)pentyl)isoxazole-3-carboxamide] | 19.1 |
| CN1CCN(CCC(F)(F)CCNC(=O)c2cc(-c3cccs3)on2)CC1 [Example 74, N-(3,3-Difluoro-5-(4-methylpiperazin-1-yl)pentyl)-5-(thiophen-2-yl)isoxazole-3-carboxamide] | 19.4 |
| NC(=O)C1CN(CCC(F)(F)CCNC(=O)c2cc(-c3cccs3)on2)C1 [Example 75, N-(5-(3-Carbamoylazetidin-1-yl)-3,3-difluoropentyl)-5-(thiophen-2-yl)isoxazole-3-carboxamide] | 20.6 |
| NC(=O)C1CN(CCC(F)(F)CCNC(=O)c2cc(-c3ccc(F)cc3)on2)C1 [Example 76, N-(5-(3-Carbamoylazetidin-1-yl)-3,3-difluoropentyl)-5-(4-fluorophenyl)isoxazole-3-carboxamide] | 20.4 |
| N#CCNC(=O)C1CN(CCCCCNC(=O)c2cc(-c3cccs3)on2)C1 [Example 77, N-(5-(3-((Cyanomethyl)carbamoyl)azetidin-1-yl)pentyl)-5-(thiophen-2-yl)isoxazole-3-carboxamide] | 24.1 |
| O=C(NCCCCCN1CC(C(=O)NCCO)C1)c1cc(-c2cccs2)on1 [Example 78, N-(5-(3-((2-Hydroxyethyl)carbamoyl)azetidin-1-yl)pentyl)-5-(thiophen-2-yl)isoxazole-3-carboxamide] | 23.1 |
| O=C(NCCCCCN1CC(C(=O)N[C@H]2C[C@@H](O)C2)C1)c1cc(-c2cccs2)on1 [Example 79, N-(5-(3-(((1,3-cis)-3-Hydroxycyclobutyl)carbamoyl)azetidin-1-yl)pentyl)-5-(thiophen-2-yl)isoxazole-3-carboxamide] | 26.6 |
| O=C(NCCCCCN1CC(C(=O)N[C@H]2C[C@H](O)C2)C1)c1cc(-c2cccs2)on1 [Example 80, N-(5-(3-(((1,3-trans)-3-Hydroxycyclobutyl)carbamoyl)azetidin-1-yl)pentyl)-5-(thiophen-2-yl)isoxazole-3-carboxamide] | 47.2 |
| O=C(NCCCCCN1CC(C(=O)NCCCO)C1)c1cc(-c2cccs2)on1 [Example 81, N-(5-(3-((3-Hydroxypropyl)carbamoyl)azetidin-1-yl)pentyl)-5-(thiophen-2-yl)isoxazole-3-carboxamide] | 33 |
| O=C(NCCCCCN1CC(C(=O)NC2CCC(O)C2)C1)c1cc(-c2cccs2)on1 (centres unmarked) [Example 82, N-(5-(3-((3-Hydroxycyclopentyl)carbamoyl)azetidin-1-yl)pentyl)-5-(thiophen-2-yl)isoxazole-3-carboxamide] | 31.9 |
| O=C(NCCCCCN1CC(C(=O)NC2CCCC2O)C1)c1cc(-c2cccs2)on1 (centres unmarked) [Example 83, N-(5-(3-((2-Hydroxycyclopentyl)carbamoyl)azetidin-1-yl)pentyl)-5-(thiophen-2-yl)isoxazole-3-carboxamide] | 34.4 |
| N#CCCNC(=O)C1CN(CCCCCNC(=O)c2cc(-c3cccs3)on2)C1 [Example 84, N-(5-(3-((2-Cyanoethyl)carbamoyl)azetidin-1-yl)pentyl)-5-(thiophen-2-yl)isoxazole-3-carboxamide] | 35.1 |
| CNC(=O)C1CN(CCCCCNC(=O)c2cc(-c3ccc(F)cc3)on2)C1 [Example 85, 5-(4-Fluorophenyl)-N-(5-(3-(methylcarbamoyl)azetidin-1-yl)pentyl)isoxazole-3-carboxamide] | 20.7 |
| CCNC(=O)C1CN(CCCCCNC(=O)c2cc(-c3ccc(F)cc3)on2)C1 [Example 86, N-(5-(3-(Ethylcarbamoyl)azetidin-1-yl)pentyl)-5-(4-fluorophenyl)isoxazole-3-carboxamide] | 36.7 |
| N#CCCNC(=O)C1CN(CCCCCNC(=O)c2cc(-c3ccc(F)cc3)on2)C1 [Example 87, N-(5-(3-((2-Cyanoethyl)carbamoyl)azetidin-1-yl)pentyl)-5-(4-fluorophenyl)isoxazole-3-carboxamide] | 27.8 |
| N#CCNC(=O)C1CN(CCCCCNC(=O)c2cc(-c3ccc(F)cc3)on2)C1 [Example 88, N-(5-(3-((Cyanomethyl)carbamoyl)azetidin-1-yl)pentyl)-5-(4-fluorophenyl)isoxazole-3-carboxamide] | 9.3 |
| O=C(NCCCCCN1CC(C(=O)N[C@H]2C[C@H](O)C2)C1)c1cc(-c2ccc(F)cc2)on1 [Example 89, 5-(4-Fluorophenyl)-N-(5-(3-(((1,3-trans)-3-hydroxycyclobutyl)carbamoyl)azetidin-1-yl)pentyl)isoxazole-3-carboxamide] | 11 |
